In patent US12077503B2, “Substituted cyclic amides and their use as herbicides” (FMC CORPORATION, priority 2015, dated 2024):

How the values were obtained:
Format in all cases: in vivo
[1] = tested on: barnyardgrass (Echinochloa crus-galli); test: Test G Pre-Emergence Protocol; conditions: Echinochloa crus-galli, pre-emergence, 312 h, evaluated after 13 days; for pest or weed control at 15.625 g/ha: 15.625 g ai/ha; for pest or weed control at 15.625 g/ha / pest or weed control at 250 g/ha: read-out: Barnyardgrass damage rating (100=total damage to plant; 0=no damage to plant); for pest or weed control at 62.5 g/ha: 62.5 g ai/ha, 100=total damage to plant, 0=no damage to plant, read-out: Barnyardgrass damage rating; for pest or weed control at 250 g/ha: 250 g ai/ha
Method in brief: (§1)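 Glasshouse pre-emergence test: soil-sown seeds, sprayed after 1 d at 15.625, 62.5 or 250 g/ha. Conditions 24/16° C day/night, 14 h light, 65% humidity, watering twice daily. Rating 13 d post-spray (100 = total damage).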

[2] = tested on: corn (Zea mays); test: Test G Pre-Emergence Protocol; conditions: Zea mays, pre-emergence, 312 h, evaluated after 13 days; for plant injury at 15.625 g/ha: 15.625 g ai/ha; for plant injury at 15.625 g/ha / plant injury at 250 g/ha: read-out: Corn damage rating (100=total damage to plant; 0=no damage to plant); for plant injury at 62.5 g/ha: 62.5 g ai/ha, 100=total damage to plant, 0=no damage to plant, read-out: Corn damage rating; for plant injury at 250 g/ha: 250 g ai/ha
Method in brief: as §1

[3] = tested on: giant foxtail (Setaria faberi); test: Test G Pre-Emergence Protocol; conditions: Setaria faberi, pre-emergence, 312 h, evaluated after 13 days; for pest or weed control at 15.625 g/ha: 15.625 g ai/ha; for pest or weed control at 15.625 g/ha / pest or weed control at 250 g/ha: read-out: Foxtail, Giant damage rating (100=total damage to plant; 0=no damage to plant); for pest or weed control at 62.5 g/ha: 62.5 g ai/ha, 100=total damage to plant, 0=no damage to plant, read-out: Foxtail, Giant damage rating; for pest or weed control at 250 g/ha: 250 g ai/ha
Method in brief: as §1

[4] = tested on: ivy-leaved morning glory (Ipomoea hederacea); test: Test G Pre-Emergence Protocol; conditions: Ipomoea, pre-emergence, 312 h, evaluated after 13 days; for pest or weed control at 15.625 g/ha: 15.625 g ai/ha; for pest or weed control at 15.625 g/ha / pest or weed control at 250 g/ha: read-out: Morningglory, Ivy-leaved damage rating (100=total damage to plant; 0=no damage to plant); for pest or weed control at 62.5 g/ha: 62.5 g ai/ha, 100=total damage to plant, 0=no damage to plant, read-out: Morningglory, Ivy-leaved damage rating; for pest or weed control at 250 g/ha: 250 g ai/ha
Method in brief: as §1

[5] = tested on: redroot pigweed (Amaranthus retroflexus); test: Test G Pre-Emergence Protocol; conditions: Amaranthus retroflexus, pre-emergence, 312 h, evaluated after 13 days; for pest or weed control at 15.625 g/ha: 15.625 g ai/ha; for pest or weed control at 15.625 g/ha / pest or weed control at 250 g/ha: read-out: Pigweed, Redroot damage rating (100=total damage to plant; 0=no damage to plant); for pest or weed control at 62.5 g/ha: 62.5 g ai/ha, 100=total damage to plant, 0=no damage to plant, read-out: Pigweed, Redroot damage rating; for pest or weed control at 250 g/ha: 250 g ai/ha
Method in brief: as §1

[6] = tested on: velvetleaf (Abutilon theophrasti); test: Test G Pre-Emergence Protocol; conditions: Abutilon theophrasti, pre-emergence, 312 h, evaluated after 13 days; for pest or weed control at 15.625 g/ha: 15.625 g ai/ha; for pest or weed control at 15.625 g/ha / pest or weed control at 250 g/ha: read-out: Velvetleaf damage rating (100=total damage to plant; 0=no damage to plant); for pest or weed control at 62.5 g/ha: 62.5 g ai/ha, 100=total damage to plant, 0=no damage to plant, read-out: Velvetleaf damage rating; for pest or weed control at 250 g/ha: 250 g ai/ha
Method in brief: as §1

[7] = tested on: barnyardgrass (Echinochloa crus-galli); test: Test G Post-Emergence Protocol; conditions: Echinochloa crus-galli, post-emergence, 312 h, read-out: Barnyardgrass damage rating; for pest or weed control at 15.625 g/ha: 15.625 g ai/ha, evaluated after 13 days (100=total damage to plant; 0=no damage to plant); for pest or weed control at 62.5 g/ha: 62.5 g ai/ha; for pest or weed control at 62.5 g/ha / pest or weed control at 250 g/ha: evaluated after 13 days, 100=total damage to plant, 0=no damage to plant; for pest or weed control at 250 g/ha: 250 g ai/ha
Method in brief: (§2)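 Eight days post-sowing, plants received a spray of test compound (acetone/water 50:50, 0.5% Tween 20) at 15.625, 62.5 or 250 g/ha. Glasshouse regime thereafter: 24/16 °C, 14 h light, 65% humidity. Assessment after 13 days on a 0–100 damage scale.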

[8] = tested on: corn (Zea mays); test: Test G Post-Emergence Protocol; conditions: Zea mays, post-emergence, 312 h, read-out: Corn damage rating; for plant injury at 15.625 g/ha: 15.625 g ai/ha, evaluated after 13 days (100=total damage to plant; 0=no damage to plant); for plant injury at 62.5 g/ha: 62.5 g ai/ha; for plant injury at 62.5 g/ha / plant injury at 250 g/ha: evaluated after 13 days, 100=total damage to plant, 0=no damage to plant; for plant injury at 250 g/ha: 250 g ai/ha
Method in brief: as §2

[9] = tested on: giant foxtail (Setaria faberi); test: Test G Post-Emergence Protocol; conditions: Setaria faberi, post-emergence, 312 h, read-out: Foxtail, Giant damage rating; for pest or weed control at 15.625 g/ha: 15.625 g ai/ha, evaluated after 13 days (100=total damage to plant; 0=no damage to plant); for pest or weed control at 62.5 g/ha: 62.5 g ai/ha; for pest or weed control at 62.5 g/ha / pest or weed control at 250 g/ha: evaluated after 13 days, 100=total damage to plant, 0=no damage to plant; for pest or weed control at 250 g/ha: 250 g ai/ha
Method in brief: as §2

[10] = tested on: ivy-leaved morning glory (Ipomoea hederacea); test: Test G Post-Emergence Protocol; conditions: Ipomoea, post-emergence, 312 h, read-out: Morningglory, Ivy-leaved damage rating; for pest or weed control at 15.625 g/ha: 15.625 g ai/ha, evaluated after 13 days (100=total damage to plant; 0=no damage to plant); for pest or weed control at 62.5 g/ha: 62.5 g ai/ha; for pest or weed control at 62.5 g/ha / pest or weed control at 250 g/ha: evaluated after 13 days, 100=total damage to plant, 0=no damage to plant; for pest or weed control at 250 g/ha: 250 g ai/ha
Method in brief: as §2

[11] = tested on: redroot pigweed (Amaranthus retroflexus); test: Test G Post-Emergence Protocol; conditions: Amaranthus retroflexus, post-emergence, 312 h, read-out: Pigweed, Redroot damage rating; for pest or weed control at 15.625 g/ha: 15.625 g ai/ha, evaluated after 13 days (100=total damage to plant; 0=no damage to plant); for pest or weed control at 62.5 g/ha: 62.5 g ai/ha; for pest or weed control at 62.5 g/ha / pest or weed control at 250 g/ha: evaluated after 13 days, 100=total damage to plant, 0=no damage to plant; for pest or weed control at 250 g/ha: 250 g ai/ha
Method in brief: as §2

[12] = tested on: velvetleaf (Abutilon theophrasti); test: Test G Post-Emergence Protocol; conditions: Abutilon theophrasti, post-emergence, 312 h, read-out: Velvetleaf damage rating; for pest or weed control at 15.625 g/ha: 15.625 g ai/ha, evaluated after 13 days (100=total damage to plant; 0=no damage to plant); for pest or weed control at 62.5 g/ha: 62.5 g ai/ha; for pest or weed control at 62.5 g/ha / pest or weed control at 250 g/ha: evaluated after 13 days, 100=total damage to plant, 0=no damage to plant; for pest or weed control at 250 g/ha: 250 g ai/ha
Method in brief: as §2

CSc1ccncc1NC(=O)[C@H]1C(=O)N(C)C[C@@H]1c1ccc(C(F)(F)F)cc1 (racemic) [Compound 1749]
0%: pest or weed control at 15.625 g/ha [1] | pest or weed control at 62.5 g/ha [1] | pest or weed control at 250 g/ha [1] | plant injury at 15.625 g/ha [2] | plant injury at 62.5 g/ha [2] | plant injury at 250 g/ha [2] | pest or weed control at 15.625 g/ha [3] | pest or weed control at 62.5 g/ha [3] | pest or weed control at 250 g/ha [3] | pest or weed control at 15.625 g/ha [4] | pest or weed control at 62.5 g/ha [4] | pest or weed control at 250 g/ha [4] | pest or weed control at 15.625 g/ha [5] | pest or weed control at 62.5 g/ha [5] | pest or weed control at 250 g/ha [5] | pest or weed control at 15.625 g/ha [6] | pest or weed control at 62.5 g/ha [6] | pest or weed control at 250 g/ha [6] | pest or weed control at 15.625 g/ha [7] | pest or weed control at 62.5 g/ha [7] | pest or weed control at 250 g/ha [7] | plant injury at 15.625 g/ha [8] | plant injury at 62.5 g/ha [8] | plant injury at 250 g/ha [8] | pest or weed control at 15.625 g/ha [9] | pest or weed control at 62.5 g/ha [9] | pest or weed control at 250 g/ha [9] | pest or weed control at 15.625 g/ha [10] | pest or weed control at 62.5 g/ha [10] | pest or weed control at 250 g/ha [10] | pest or weed control at 15.625 g/ha [11] | pest or weed control at 62.5 g/ha [11] | pest or weed control at 250 g/ha [11] | pest or weed control at 15.625 g/ha [12] | pest or weed control at 62.5 g/ha [12] | pest or weed control at 250 g/ha [12]

CN1C[C@H](c2ccc(C(F)(F)F)cc2)[C@@H](C(=O)Nc2cncnc2Cl)C1=O (racemic) [Compound 1748]
0%: pest or weed control at 15.625 g/ha [1] | pest or weed control at 62.5 g/ha [1] | pest or weed control at 250 g/ha [1] | plant injury at 15.625 g/ha [2] | plant injury at 62.5 g/ha [2] | plant injury at 250 g/ha [2] | pest or weed control at 15.625 g/ha [3] | pest or weed control at 62.5 g/ha [3] | pest or weed control at 250 g/ha [3] | pest or weed control at 15.625 g/ha [4] | pest or weed control at 62.5 g/ha [4] | pest or weed control at 250 g/ha [4] | pest or weed control at 15.625 g/ha [5] | pest or weed control at 62.5 g/ha [5] | pest or weed control at 250 g/ha [5] | pest or weed control at 15.625 g/ha [6] | pest or weed control at 62.5 g/ha [6] | pest or weed control at 250 g/ha [6] | pest or weed control at 15.625 g/ha [7] | pest or weed control at 62.5 g/ha [7] | pest or weed control at 250 g/ha [7] | plant injury at 15.625 g/ha [8] | plant injury at 62.5 g/ha [8] | plant injury at 250 g/ha [8] | pest or weed control at 15.625 g/ha [9] | pest or weed control at 62.5 g/ha [9] | pest or weed control at 250 g/ha [9] | pest or weed control at 15.625 g/ha [10] | pest or weed control at 62.5 g/ha [10] | pest or weed control at 250 g/ha [10] | pest or weed control at 15.625 g/ha [11] | pest or weed control at 62.5 g/ha [11] | pest or weed control at 250 g/ha [11] | pest or weed control at 15.625 g/ha [12] | pest or weed control at 62.5 g/ha [12] | pest or weed control at 250 g/ha [12]
